Measured values published in patent publication US11945862B2, “Compositions and methods for antibody production” (ImmunoGen, Inc., priority 2017, dated 2024).

How the values were obtained:
[1] = system: humanized FOLR1 IgG1; test: Antibody fragmentation in HCCF treated with 20% (v/v) microfluidized CHO cells, non-reducing SDS-Protein Lab Chip; type: biochemical; settings: 1 mM of each additive, 6 h; control 78% fragmentation
Experimental: The samples were quenched with 5 mM N-ethylmaleimide (NEM), purified using immobilized Protein A, and subjected to non-reducing SDS-Protein Lab Chip electrophoretic analysis.

[2] = system: humanized N901 antibody; test: Antibody disulfide reduction by CHO cell lysate (RIPA buffer), thiol/antibody by Ellman's assay; type: biochemical
Experimental: For all of the examples described below, cell damage was simulated by multiple freeze-thaw cycles of cells, by addition of RIPA buffer (50 mM Tris-HCl, pH 7.4, 1% NP-40, 0.5% sodium deoxycholate, 0.1% sodium dodecylsulfate), or by using microfluidizer. This damaged cell supernatant or lysate was then incubated with a buffered solution containing antibody with or without the anti-reduction agent being tested, following which the extent of the antibody-disulfide reduction was measured using Ellman's assay for thiol (P. W. Riddles, R. L. Blakeley, and B. Zerner, Methods Enzymol., 91, 49-60, 1983) or by non-reducing SDS protein LabChip analysis. The total thiol level present in the mixture of damaged cell supernatant/lysate was measured initially.
The effect of 1,2-naphthoquinone-4-sulfonic acid (NQS) on antibody-disulfide reduction was studied by incubating 1,2-naphthoquinone-4-sulfonic acid at several concentrations with antibody and damaged CHO lysate. The damaged CHO cell lysate was generated by the addition of 0.5 ml RIPA buffer (50 mM Tris-HCl, pH 7.4, 1% NP-40, 0.5% sodium deoxycholate, 0.1% sodium dodecylsulfate) to 100 million CHO cells. The thiol concentration in CHO cell lysate was measured by Ellman's assay as 2.1 mM.
Each sample contained pre-mixed 0.5 ml RIPA buffer (50 mM Tris-HCl, pH 7.4, 1% NP-40, 0.5% sodium deoxycholate, 0.1% sodium dodecylsulfate) with 1 mg humanized N901 antibody, with or without 1,2-naphthoquinone-4-sulfonic acid (25 micromolar, or 50 micromolar, or 100 micromolar), which was added to a cell pellet of 100 million CHO cells, and the resuspended cells were incubated at ambient temperature for 30 minutes, following which the cell debris were pelleted by centrifugation (16,000 g, 5 min). The supernatant from each sample was added to 50 microliter immobilized-Protein A beads (RepliGen) and rotated at ambient temperature for 3 hours, after which the supernatant was removed and the beads washed with PBS.
(§1) The thiol content of the immobilized antibody was determined by the addition of 0.6 ml of PBS containing 0.5 mM DTNB (Ellman's reagent) to the beads, rotation for about 10 minutes, centrifugation, and absorbance measurement of supernatant at 412 nm.
The effect of anthraquinone-2-sulfonic acid (AQS) on antibody-disulfide reduction was studied during co-incubation of anthraquinone-2-sulfonic acid with antibody and damaged CHO lysate. Each sample contained pre-mixed 1 ml RIPA buffer (50 mM Tris-HCl, pH 7.4, 1% NP-40, 0.5% sodium deoxycholate, 0.1% sodium dodecylsulfate) with 1 mg humanized N901 antibody, with or without 0.2 mM anthraquinone-2-sulfonic acid (AQS), which was added to a cell pellet of 100 million CHO cells, and the resuspended cells were incubated at ambient temperature for 30 minutes, following which the cell debris were pelleted by centrifugation (16,000 g, 5 min). The thiol concentration in CHO cell lysate was 1 mM (Ellman's assay).
as §1, with “The supernatant from each sample was added to 50 microliter immobilized-Protein A beads (RepliGen) and rotated at ambient temperature for 3 hours, after which the supernatant was removed and the beads washed with PBS. The” for “The”
In another experiment, 1 mg huN901 antibody was incubated with CHO lysate, with or without 0.4 mM anthraquinone-2-sulfonic acid for 4 hours. The mixture was then analyzed for thiol/antibody as above.
The thiol concentration in CHO cell lysate was 1 mM (Ellman's assay).
The supernatant from each sample was added to 50 microliter immobilized-Protein A beads (RepliGen) and rotated at ambient temperature for 3 hours, after which the supernatant was removed and the beads washed with PBS. […]

[3] = system: recombinant humanized IgG1 antibody; test: Antibody fragmentation in thawed HCCF under nitrogen or air with CDME, non-reducing SDS-Protein Lab Chip; type: biochemical
Experimental: A CHO cell culture producing recombinant humanized IgG1 antibody was subjected to centrifugation and the resulting harvest cell culture fluid (HCCF) was frozen at −80° C. […] At various time points, samples were quenched with N-ethylmaleimide (NEM), purified using immobilized Protein A, and analyzed for fragments using non-reducing SDS-Protein Lab Chip electrophoresis. […] In contrast, the sample overlayed with air became less fragmented with time, reaching a plateau of about 25% fragmentation at 20 hours.

[4] = system: M9346A antibody; type: biochemical; settings: 1 mM additive, conditions where control without additive was 100% fragmented
Experimental: Antibody reduction was induced in a biological assay by adding cell lysate to purified monoclonal antibody. […]. Increasing amounts of CHO cell lysate were added to mimic different percentages of cell lysis, ranging from […]. Fresh NADPH was added to a concentration of 400 μM. The mixtures were incubated in a water bath at 37° C. for 1 h. Free thiols were alkylated by addition of 10% (v/v) of 50 mM N-ethyl-maleimide (NEM) solution. Samples were analyzed by non-reduced sodium dodecyl sulfate denaturing capillary electrophoresis (NR-CE-SDS).
To test the capacity for protection further, the stringency of the assay was increased. […].

[5] = system: Humanized FOLR1 IgG1 antibody; test: Antibody disulfide reduction by CHO cell lysate (RIPA buffer), thiol per antibody by Ellman's assay; type: biochemical; settings: 2 mM agent
Experimental: Lysates of CHO cells (˜60 million cells lysed in 0.6 ml RIPA buffer and clarified by centrifugation) were added to each of these mixtures. The pH values of all samples were adjusted to 7. […] The samples were incubated with 200 microliter immobilized-Protein A beads (RepliGen) and rotated at ambient temperature for 3 hours, after which the supernatant was removed and the beads washed with PBS. The thiol content of the immobilized antibody was determined by the addition of 0.2 ml of PBS containing 0.5 mM DTNB (Ellman's reagent) to the beads, rotation for about 10 minutes, centrifugation, and absorbance measurement of the supernatant at 412 nm.
The pH values of all samples were adjusted to 7. The samples were incubated with 200 microliter immobilized-Protein A beads (RepliGen) and rotated at ambient temperature for 3 hours, after which the supernatant was removed and the beads washed with PBS. The thiol content of the immobilized antibody was determined by the addition of 0.2 ml of PBS containing 0.5 mM DTNB (Ellman's reagent) to the beads, rotation for about 10 minutes, centrifugation, and absorbance measurement of the supernatant at 412 nm.
To test the effect of L-cystine bis(t-butyl ester) (CDBE) on protecting antibody disulfide bonds from reduction by CHO lysate, humanized FOLR1 IgG1 antibody (2 mg) was incubated with CHO lysate in RIPA buffer (0.6 ml lysate of 60 million CHO cells in 0.6 ml RIPA buffer, clarified by centrifugation) without or with 0.5 or 1 mM CDBE. The samples were rotated at ambient temperature with 200 microliter immobilized-Protein A beads (RepliGen) for 2 hours, after which the supernatant was removed and the beads washed with PBS. The thiol content of the immobilized antibody was determined by the addition of 0.2 ml of PBS containing 0.5 mM DTNB (Ellman's reagent) to the beads, centrifugation, and absorbance measurement of the supernatant at 412 nm.
The samples were rotated at ambient temperature with 200 microliter immobilized-Protein A beads (RepliGen) for 2 hours, after which the supernatant was removed and the beads washed with PBS. The thiol content of the immobilized antibody was determined by the addition of 0.2 ml of PBS containing 0.5 mM DTNB (Ellman's reagent) to the beads, centrifugation, and absorbance measurement of the supernatant at 412 nm.

[6] = system: CHO cells; test: Viability of CHO cells after 1 day treatment; settings: 0.75 mM, control 98.9%
[7] = system: M9346A antibody; type: biochemical; settings: 1 mM additive, 100 μM DTT, 37° C., 1 h; control 80%
[8] = system: humanized IgG4; test: IgG4 disulfide reduction by CHO cell lysate, DTNB thiol assay; type: biochemical; settings: 1 mM agent, 30% v/v CHO cell lysate, 4 hours, pH 7; control 7.7
Experimental: All samples were adjusted to pH 7 and incubated with 200 μl protein A beads for 4 hours while rotating at room temperature. After the incubation the supernatant was removed and beads washed three times with 10 ml PBS. To analyze the thiol content of the protein A-bound IgG4 antibody, the beads were incubated with a 0.5 mM DTNB solution for 5 min and the absorbance of the supernatant measured at 412 nm.

[9] = system: Humanized IgG2 antibody; test: IgG2 disulfide reduction by CHO cell lysate, DTNB thiol assay; type: biochemical; settings: 1 mM agent, 40% v/v CHO cell lysate, 5 hours, pH 7; control 0.84
Experimental: Humanized IgG2 antibody (1 mg/ml; final concentration) was incubated with 40% v/v CHO cell lysate (˜40 million cells lysed with 0.4 ml RIPA buffer and debris removed by centrifugation) in a total volume of 1 ml. The control sample was adjusted to pH 7 and rotated at RT for 5 hours with 100 μl protein A beads. […] After the incubation time of 5 hours, the supernatant was removed and the beads were washed three times with 10 ml PBS before the thiol amount of the immobilized antibody was analyzed by adding 0.5 mM DTNB and measuring the absorbance at 412 nm.

[10] = Redox potential of antibody solution with media additive over a range of DTT concentrations; type: physicochemical; settings: 1 mM additive, DTT 0.34 μM to 170 μM, 37° C., 1 h

Compound: COC(=O)[C@@H](N)CSSC[C@H](N)C(=O)OC [CDME, L-cystine dimethyl ester]
- fragmentation compared with no additive control [1]: much lower fragmentations
- thiol/antibody ([2]; 0.05 mM agent, 3 hours, lysate thiol 1 mM, control 5.20): 2.75 thiol/antibody
- thiol/antibody ([2]; 0.1 mM agent, 3 hours, lysate thiol 1 mM, control 5.20): 1.85 thiol/antibody
- thiol/antibody ([2]; 0.2 mM agent, 3 hours, lysate thiol 1 mM, control 5.20): 1.56 thiol/antibody
- thiol/antibody ([2]; 0.4 mM agent alone, 4 hours, control 4.34): 1.37 thiol/antibody
- thiol/antibody ([2]; 0.5 mM agent, 3 hours, lysate thiol 1 mM, control 5.20): 1.19 thiol/antibody
- thiol/antibody ([2]; 0.75 mM agent, 4° C. overnight, control 2.29): 0.96 thiol/antibody
- time the antibody was protected from reduction ([3]; 1 mM CDME with nitrogen): up to 20 hours
- time the antibody was protected from reduction ([3]; 2 mM CDME with nitrogen): ≤ 45 h
- expected protection against antibody disulfide bond reduction ([3]; combination of oxygen sparging with CDME): highly effective
- fragmentation with air overlay plus agent versus air overlay alone ([3]; ~1 mM CDME with air overlay, up to 72 hours): lowered the fragmentation further throughout the course of the study
- protection at increased assay stringency [4]: protective of disulfide reduction
- decrease in disulfide reduction compared to the control ([5]; 100 mM phosphate buffer pH 7, 2 hours): ~89%
- thiol per antibody ([5]; 100 mM phosphate buffer pH 7, 2 hours, control 1.16): ~0.13 thiol per antibody
- thiol per antibody ([5]; 3 hours, pH 7, lysate of ~40 million cells, control 0.95): about 0.02 thiol per antibody
- thiol per antibody ([5]; 3 hours, pH 7, lysate of ~60 million cells, control 1.96): about 0.25 thiol per antibody
- viability of CHO cells [6]: 98.9%
- intact antibody [7]: 100%
- thiol groups per antibody [8]: 0.004 thiol groups per antibody
- reduced thiols per antibody [9]: near-zero reduction
- modulation of redox potential [10]: constant redox potential across all DTT concentrations
